How the values were obtained:
[1] = system: Human immunodeficiency virus; assay: Inhibition of HIV protease at 1 nM
[2] = Selectivity index, Ratio of LC50 for MT4 cells to EC50 for HIV1 3B; type: functional
[3] = system: Human immunodeficiency virus 1; assay: Antiviral activity against HIV1 3B in MT4 cells by MTT assay; type: functional, organism-based; conditions: Human immunodeficiency virus 1, 3B
[4] = Cytotoxicity against MT4 cells by MTT assay; type: cell-based; conditions: human, read-out: LC50 (the source's name)
[5] = system: Human immunodeficiency virus 1; assay: Antiviral activity against HIV1 NL432; type: functional, organism-based; conditions: Human immunodeficiency virus 1, NL432
[6] = system: Human immunodeficiency virus 1; assay: Antiviral activity against ritonavir-resistant HIV1 NL432; type: functional, organism-based; conditions: Human immunodeficiency virus 1, NL432
[7] = system: Human immunodeficiency virus 1; assay: Antiviral activity against nelfinavir-resistant HIV1 NL432; type: functional, organism-based; conditions: Human immunodeficiency virus 1, NL432
[8] = system: Human immunodeficiency virus 1; assay: Antiviral activity against ritonavir and nelfinavir-resistant HIV1 NL432; type: functional, organism-based; conditions: Human immunodeficiency virus 1, NL432
[9] = Inhibition of HIV protease; parameters: species or system Human immunodeficiency virus

SMILES | inhibition [1] [%] | Selectivity index [2] | EC50 [3] [nM] | CC50 [4] [nM] | EC50 [5] [nM] | EC50 [6] [nM] | EC50 [7] [nM] | EC50 [8] [nM] | IC50 [9] [nM]
CC(=O)NC(CSc1cccc2ccccc12)C(=O)N[C@@H](Cc1ccccc1)[C@H](O)C(=O)N1CSC(C)(C)[C@H]1C(=O)NCc1ccccc1C (stereo partly specified) | 68 | 471 | 13 | 8000 | 70 | 18 | 6.3 | 52 | –
CC(C)(C)NC(=O)c1ccccc1C[C@H](O)[C@@H](Cc1ccccc1)NC(=O)[C@H](CS(=O)(=O)c1ccc(Cl)cc1)NS(C)(=O)=O | – | – | – | – | – | – | – | – | 0.34
CC(=O)NC(CS(=O)(=O)c1cccc2ccccc12)C(=O)N[C@@H](Cc1ccccc1)[C@H](O)C(=O)N1CSC(C)(C)[C@H]1C(=O)NCc1ccccc1C (stereo partly specified) | 97 | 400 | 40 | 16000 | – | – | – | – | 0.09
Cc1ccccc1CNC(=O)[C@H]1N(C(=O)[C@@H](O)[C@H](Cc2ccccc2)NC(=O)C(CS(=O)(=O)c2cccc3ccccc23)NS(C)(=O)=O)CSC1(C)C (stereo partly specified) | 97 | – | – | – | – | – | – | – | 0.083
Cc1c(O)cccc1C(=O)N[C@@H](CSc1ccccc1)[C@H](O)CN1C[C@H]2CCCC[C@H]2C[C@H]1C(=O)NC(C)(C)C | 29 | 688 | 16 | 11000 | 25 | 28 | 308 | 67 | –
COc1ccc(CS(=O)(=O)C[C@@H](NC(C)=O)C(=O)N[C@@H](Cc2ccccc2)[C@H](O)C(=O)N2CSC(C)(C)[C@H]2C(=O)NCc2ccccc2C)cc1 | 59 | >265 | 102 | > 27000 | – | – | – | – | –
Cc1cc(C)c(NC(CSc2ccc3ccccc3c2)C(=O)N[C@@H](Cc2ccccc2)[C@H](O)C(=O)N2CSC(C)(C)[C@H]2C(=O)NCc2ccccc2C)c(C)c1 (stereo partly specified) | 67 | 469 | 13 | 6100 | 17 | 31 | 0.8 | 23 | –
COc1ccc(CS(=O)(=O)C[C@@H](Nc2c(C)cc(C)cc2C)C(=O)N[C@@H](Cc2ccccc2)[C@H](O)C(=O)N2CSC(C)(C)[C@H]2C(=O)NCc2ccccc2C)cc1 | 66 | >128 | 203 | > 26000 | – | – | – | – | –
CC(=O)NC(CS(=O)(=O)c1ccc2ccccc2c1)C(=O)N[C@@H](Cc1ccccc1)[C@H](O)C(=O)N1CSC(C)(C)[C@H]1C(=O)NCc1ccccc1C (stereo partly specified) | 96 | 571 | 28 | 16000 | – | – | – | – | 0.086
CC(=O)NC(CSc1ccc2ccccc2c1)C(=O)N[C@@H](Cc1ccccc1)[C@H](O)C(=O)N1CSC(C)(C)[C@H]1C(=O)NCc1ccccc1C (stereo partly specified) | 53 | 461 | 18 | 8300 | 17 | 65 | 7.2 | 32 | –
CSC[C@H](NC(=O)COc1cccc2cnccc12)C(=O)N[C@@H](Cc1ccccc1)[C@H](O)C(=O)N1CSC[C@H]1C(=O)NC(C)(C)C | 40 | >1363 | 22 | > 30000 | – | – | – | – | –
CC(C)c1nc(CN(C)C(=O)N[C@H](C(=O)N[C@@H](Cc2ccccc2)C[C@H](O)[C@H](Cc2ccccc2)NC(=O)OCc2cncs2)C(C)C)cs1 [RITONAVIR] | 90 | – | 36 | – | 80 | 220 | – | 162 | –
COc1ccc(CSC[C@@H](NC(C)=O)C(=O)N[C@@H](Cc2ccccc2)[C@H](O)C(=O)N2CSC(C)(C)[C@H]2C(=O)NCc2ccccc2C)cc1 | 87 | 1308 | 13 | 17000 | 17 | 18 | 2.4 | 14 | 0.18
Cc1cc(C)c(NC(CSc2cccc3ccccc23)C(=O)N[C@@H](Cc2ccccc2)[C@H](O)C(=O)N2CSC(C)(C)[C@H]2C(=O)NCc2ccccc2C)c(C)c1 (stereo partly specified) | 74 | 688 | 6.4 | 4400 | 9.3 | 17 | 0.67 | 13 | –
Cc1ccccc1CNC(=O)[C@H]1N(C(=O)[C@@H](O)[C@H](Cc2ccccc2)NC(=O)C(CS(=O)(=O)c2ccc3ccccc3c2)NS(C)(=O)=O)CSC1(C)C (stereo partly specified) | 98 | – | – | – | – | – | – | – | 0.09

Reference: ChEMBL document CHEMBL1145381, “Synthesis and antiviral property of allophenylnorstatine-based HIV protease inhibitors incorporating D-cysteine derivatives as P2/P3 moieties” (Bioorg Med Chem Lett, 2007)
